PMC5469273, “Discovery of Novel Small-Molecule Inhibitors of LIM Domain Kinase for Inhibiting HIV-1” (Journal of Virology, 2017)

Assays:
in vitro = details: human
PAK2 = PAK2 (Homo sapiens, UniProt Q13177); test: Kinase profiling (Reaction Biology): PAK2
c-MET = c-MET (Homo sapiens, UniProt P08581); test: Kinase profiling (Reaction Biology): c-MET
[1] = test system: cofilin serine 3 phosphorylation; test: Western blotting for cofilin serine 3 phosphorylation in CEM-SS T cells; details: 100 μM, time course
TBK1 = TBK1 (Homo sapiens, UniProt Q9UHD2); test: Kinase profiling (Reaction Biology): TBK1
TBK1, sequence (Q9UHD2 whole entry): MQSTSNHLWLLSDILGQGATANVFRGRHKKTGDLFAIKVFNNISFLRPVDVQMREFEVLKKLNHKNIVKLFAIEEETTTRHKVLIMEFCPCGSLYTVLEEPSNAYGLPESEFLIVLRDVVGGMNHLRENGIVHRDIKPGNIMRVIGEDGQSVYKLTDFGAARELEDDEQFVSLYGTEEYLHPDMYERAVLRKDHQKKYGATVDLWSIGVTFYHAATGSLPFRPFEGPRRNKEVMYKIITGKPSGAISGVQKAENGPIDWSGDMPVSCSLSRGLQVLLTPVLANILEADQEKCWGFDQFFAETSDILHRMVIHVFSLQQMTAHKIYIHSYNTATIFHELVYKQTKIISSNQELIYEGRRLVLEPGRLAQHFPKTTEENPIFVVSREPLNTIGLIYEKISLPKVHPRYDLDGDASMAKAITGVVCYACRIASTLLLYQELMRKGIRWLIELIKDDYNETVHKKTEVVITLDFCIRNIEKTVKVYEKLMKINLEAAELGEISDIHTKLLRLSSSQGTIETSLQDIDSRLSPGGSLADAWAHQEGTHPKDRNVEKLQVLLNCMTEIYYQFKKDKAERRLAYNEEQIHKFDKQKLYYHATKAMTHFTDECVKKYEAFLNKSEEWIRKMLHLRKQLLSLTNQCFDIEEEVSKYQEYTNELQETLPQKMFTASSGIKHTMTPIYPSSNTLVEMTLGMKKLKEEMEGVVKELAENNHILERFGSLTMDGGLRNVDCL

HIV-1(Env) [2] = type: cell-based
p70S6K/RPS6KB1 = p70S6K/RPS6KB1 (Homo sapiens, UniProt P23443); test: Kinase profiling (Reaction Biology): p70S6K/RPS6KB1; details: read-out: inhibition of p70S6K
CAMK2b = CAMK2b (Homo sapiens, UniProt Q13554); test: Kinase profiling (Reaction Biology): CAMK2b
JAK3 = JAK3 (Homo sapiens, UniProt P52333); test: Kinase profiling (Reaction Biology): JAK3
LIMK1 = LIMK1 (Homo sapiens, UniProt P53667); test: LIMK1 biochemical assay, 10-dose IC50; design: purified from insect cells; His; purchased Reaction Biology Corporation, Malvern, PA; host or cells: insect cells (coexpressed with ROCK1); details: purified LIMK1; 10 μM ATP, 1 μM cofilin; ≥2 in vitro kinase assays; read-out: LIMK1 Biochemical Inhibition IC50
Source text: We selected R10015 from the potential LIMK inhibitors for further detailed mechanistic studies. The synthesis, purification, and biochemical characterization of R10015 are described in Materials and Methods below and shown in Fig. 3. We performed a cell-free assay to measure R10015 inhibition of the LIM domain kinase using purified human LIMK1 and its substrate, cofilin. […] We also performed profiling of R10015 against a panel of 62 kinases (Table 2).
Biochemical LIMK1 assays for all inhibitors were carried out by Reaction Biology Corporation, Malvern, PA, and followed the protocols described on its website. […] Reactions were carried out at 10 μM ATP, 1 μM substrate (cofilin), and 50 nM LIMK1 (final concentrations). […] The reagents were as follows: base reaction buffer, 20 mM HEPES (pH 7.5), 10 mM MgCl2, 1 mM EGTA, 0.02% Brij 35, 0.02 mg/ml bovine serum albumin (BSA), 0.1 mM Na3VO4, 2 mM dithiothreitol (DTT), 1% DMSO. No additional cofactors were added to the reaction mixture. The reaction procedures were as follows. (i) The indicated substrate was prepared in freshly made base reaction buffer. (ii) Any required cofactors were delivered to the substrate solution described above. (iii) The indicated kinase was delivered into the substrate solution and gently mixed. (iv) The compounds in DMSO were delivered into the kinase reaction mixture. (v) [^33P]ATP (final specific activity, 0.01 μCi/μl) was delivered into the reaction mixture to initiate the reaction. […] (viii) The filters were washed extensively in 0.1% phosphoric acid.

FLT3 = FLT3 (Homo sapiens, UniProt P36888); test: Kinase profiling (Reaction Biology): FLT3
FLT3, sequence (P36888 27-993): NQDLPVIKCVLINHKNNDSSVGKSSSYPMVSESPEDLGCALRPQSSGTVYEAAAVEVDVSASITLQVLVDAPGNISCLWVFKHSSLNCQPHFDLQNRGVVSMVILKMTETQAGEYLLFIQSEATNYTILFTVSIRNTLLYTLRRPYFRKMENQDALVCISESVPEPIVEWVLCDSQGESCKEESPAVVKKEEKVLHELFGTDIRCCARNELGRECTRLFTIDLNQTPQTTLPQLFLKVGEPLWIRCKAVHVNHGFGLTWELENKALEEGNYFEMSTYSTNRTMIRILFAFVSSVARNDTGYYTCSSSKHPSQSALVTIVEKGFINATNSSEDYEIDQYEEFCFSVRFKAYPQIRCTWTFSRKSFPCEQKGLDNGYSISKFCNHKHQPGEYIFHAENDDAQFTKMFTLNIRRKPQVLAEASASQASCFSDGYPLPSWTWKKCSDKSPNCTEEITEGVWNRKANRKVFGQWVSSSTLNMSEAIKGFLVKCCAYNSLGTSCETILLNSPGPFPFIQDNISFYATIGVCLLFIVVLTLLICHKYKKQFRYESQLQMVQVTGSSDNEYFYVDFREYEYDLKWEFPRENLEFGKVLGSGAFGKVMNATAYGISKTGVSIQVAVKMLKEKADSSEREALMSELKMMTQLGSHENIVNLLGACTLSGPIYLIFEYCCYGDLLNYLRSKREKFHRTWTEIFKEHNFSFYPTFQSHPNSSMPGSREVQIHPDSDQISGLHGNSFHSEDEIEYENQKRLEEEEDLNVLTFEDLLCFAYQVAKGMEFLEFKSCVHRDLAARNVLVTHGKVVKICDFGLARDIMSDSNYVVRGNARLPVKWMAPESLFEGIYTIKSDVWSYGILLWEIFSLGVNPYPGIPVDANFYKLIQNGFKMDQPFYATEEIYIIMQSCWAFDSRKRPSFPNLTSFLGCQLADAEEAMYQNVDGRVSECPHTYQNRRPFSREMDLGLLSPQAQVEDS

PKA = PKA (Homo sapiens, UniProt P17612); test: Kinase profiling (Reaction Biology): PKA
STK16 = STK16 (Homo sapiens, UniProt O75716); test: Kinase profiling (Reaction Biology): STK16
STK16, sequence (O75716 whole entry): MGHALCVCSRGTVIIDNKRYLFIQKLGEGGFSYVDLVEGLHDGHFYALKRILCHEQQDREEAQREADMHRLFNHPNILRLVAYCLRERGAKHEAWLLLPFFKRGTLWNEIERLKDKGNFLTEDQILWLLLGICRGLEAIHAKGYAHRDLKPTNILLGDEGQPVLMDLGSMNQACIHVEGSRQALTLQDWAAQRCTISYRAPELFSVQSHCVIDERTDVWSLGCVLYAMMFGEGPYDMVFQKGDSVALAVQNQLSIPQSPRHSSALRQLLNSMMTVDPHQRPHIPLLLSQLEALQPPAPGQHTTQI

SGK1 = SGK1 (Homo sapiens, UniProt O00141); test: Kinase profiling (Reaction Biology): SGK1
SGK1, sequence (O00141 whole entry): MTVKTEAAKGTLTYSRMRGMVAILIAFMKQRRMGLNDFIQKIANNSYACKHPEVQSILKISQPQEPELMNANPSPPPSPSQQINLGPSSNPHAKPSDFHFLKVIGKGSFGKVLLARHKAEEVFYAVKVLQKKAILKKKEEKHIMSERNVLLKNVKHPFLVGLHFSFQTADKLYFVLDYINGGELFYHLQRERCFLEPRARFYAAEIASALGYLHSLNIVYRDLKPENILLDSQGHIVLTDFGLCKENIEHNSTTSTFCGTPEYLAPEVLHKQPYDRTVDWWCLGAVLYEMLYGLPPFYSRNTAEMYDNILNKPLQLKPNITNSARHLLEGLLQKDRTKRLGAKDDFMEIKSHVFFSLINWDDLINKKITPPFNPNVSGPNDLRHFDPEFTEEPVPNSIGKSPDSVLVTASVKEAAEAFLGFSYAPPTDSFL

TESK1 = TESK1 (Homo sapiens, UniProt Q15569); test: Kinase profiling (Reaction Biology): TESK1
VEEV (TrD) = type: cell-based, Venezuelan equine encephalitis virus; details: Vero cells, MOI 0.1, 24 h
ROCK1 = ROCK1 (Homo sapiens, UniProt Q13464); test: Kinase profiling (Reaction Biology): ROCK1
[3] = test system: VEEV-Luc (TC-83) and VEEV (TC-83); test: microbe, parasite or virus in culture; type: cell-based; details: Venezuelan equine encephalitis virus, Vero, read-out: IC50, inhibition of VEEV
CXCR4 = test: Surface staining of CXCR4 on CEM-SS T cells; type: cell-based, human; details: 100 μM, 1 h
GSK3b = GSK3b (Homo sapiens, UniProt P49841); test: Kinase profiling (Reaction Biology): GSK3b
PIM2 = PIM2 (Homo sapiens, UniProt Q9P1W9); test: Kinase profiling (Reaction Biology): PIM2
PDGFRb = PDGFRb (Homo sapiens, UniProt P09619); test: Kinase profiling (Reaction Biology): PDGFRb
HIV-1(Env) [4] = test: 2-LTR circles by real-time PCR (nuclear migration) in CEM-SS T cells; type: cell-based
p-cofilin = test: Intracellular p-cofilin staining and flow cytometry in CEM-SS T cells; details: 100 μM, 1 h, 0 h: 20.6%
FGFR1 = FGFR1 (Homo sapiens, UniProt P11362); test: Kinase profiling (Reaction Biology): FGFR1
LRRK2 (G2019S) = LRRK2 (G2019S) (Homo sapiens, UniProt Q5S007, G2019S); test: Kinase profiling (Reaction Biology): LRRK2 (G2019S)
LRRK2 (G2019S), sequence (Q5S007 whole entry G2019S): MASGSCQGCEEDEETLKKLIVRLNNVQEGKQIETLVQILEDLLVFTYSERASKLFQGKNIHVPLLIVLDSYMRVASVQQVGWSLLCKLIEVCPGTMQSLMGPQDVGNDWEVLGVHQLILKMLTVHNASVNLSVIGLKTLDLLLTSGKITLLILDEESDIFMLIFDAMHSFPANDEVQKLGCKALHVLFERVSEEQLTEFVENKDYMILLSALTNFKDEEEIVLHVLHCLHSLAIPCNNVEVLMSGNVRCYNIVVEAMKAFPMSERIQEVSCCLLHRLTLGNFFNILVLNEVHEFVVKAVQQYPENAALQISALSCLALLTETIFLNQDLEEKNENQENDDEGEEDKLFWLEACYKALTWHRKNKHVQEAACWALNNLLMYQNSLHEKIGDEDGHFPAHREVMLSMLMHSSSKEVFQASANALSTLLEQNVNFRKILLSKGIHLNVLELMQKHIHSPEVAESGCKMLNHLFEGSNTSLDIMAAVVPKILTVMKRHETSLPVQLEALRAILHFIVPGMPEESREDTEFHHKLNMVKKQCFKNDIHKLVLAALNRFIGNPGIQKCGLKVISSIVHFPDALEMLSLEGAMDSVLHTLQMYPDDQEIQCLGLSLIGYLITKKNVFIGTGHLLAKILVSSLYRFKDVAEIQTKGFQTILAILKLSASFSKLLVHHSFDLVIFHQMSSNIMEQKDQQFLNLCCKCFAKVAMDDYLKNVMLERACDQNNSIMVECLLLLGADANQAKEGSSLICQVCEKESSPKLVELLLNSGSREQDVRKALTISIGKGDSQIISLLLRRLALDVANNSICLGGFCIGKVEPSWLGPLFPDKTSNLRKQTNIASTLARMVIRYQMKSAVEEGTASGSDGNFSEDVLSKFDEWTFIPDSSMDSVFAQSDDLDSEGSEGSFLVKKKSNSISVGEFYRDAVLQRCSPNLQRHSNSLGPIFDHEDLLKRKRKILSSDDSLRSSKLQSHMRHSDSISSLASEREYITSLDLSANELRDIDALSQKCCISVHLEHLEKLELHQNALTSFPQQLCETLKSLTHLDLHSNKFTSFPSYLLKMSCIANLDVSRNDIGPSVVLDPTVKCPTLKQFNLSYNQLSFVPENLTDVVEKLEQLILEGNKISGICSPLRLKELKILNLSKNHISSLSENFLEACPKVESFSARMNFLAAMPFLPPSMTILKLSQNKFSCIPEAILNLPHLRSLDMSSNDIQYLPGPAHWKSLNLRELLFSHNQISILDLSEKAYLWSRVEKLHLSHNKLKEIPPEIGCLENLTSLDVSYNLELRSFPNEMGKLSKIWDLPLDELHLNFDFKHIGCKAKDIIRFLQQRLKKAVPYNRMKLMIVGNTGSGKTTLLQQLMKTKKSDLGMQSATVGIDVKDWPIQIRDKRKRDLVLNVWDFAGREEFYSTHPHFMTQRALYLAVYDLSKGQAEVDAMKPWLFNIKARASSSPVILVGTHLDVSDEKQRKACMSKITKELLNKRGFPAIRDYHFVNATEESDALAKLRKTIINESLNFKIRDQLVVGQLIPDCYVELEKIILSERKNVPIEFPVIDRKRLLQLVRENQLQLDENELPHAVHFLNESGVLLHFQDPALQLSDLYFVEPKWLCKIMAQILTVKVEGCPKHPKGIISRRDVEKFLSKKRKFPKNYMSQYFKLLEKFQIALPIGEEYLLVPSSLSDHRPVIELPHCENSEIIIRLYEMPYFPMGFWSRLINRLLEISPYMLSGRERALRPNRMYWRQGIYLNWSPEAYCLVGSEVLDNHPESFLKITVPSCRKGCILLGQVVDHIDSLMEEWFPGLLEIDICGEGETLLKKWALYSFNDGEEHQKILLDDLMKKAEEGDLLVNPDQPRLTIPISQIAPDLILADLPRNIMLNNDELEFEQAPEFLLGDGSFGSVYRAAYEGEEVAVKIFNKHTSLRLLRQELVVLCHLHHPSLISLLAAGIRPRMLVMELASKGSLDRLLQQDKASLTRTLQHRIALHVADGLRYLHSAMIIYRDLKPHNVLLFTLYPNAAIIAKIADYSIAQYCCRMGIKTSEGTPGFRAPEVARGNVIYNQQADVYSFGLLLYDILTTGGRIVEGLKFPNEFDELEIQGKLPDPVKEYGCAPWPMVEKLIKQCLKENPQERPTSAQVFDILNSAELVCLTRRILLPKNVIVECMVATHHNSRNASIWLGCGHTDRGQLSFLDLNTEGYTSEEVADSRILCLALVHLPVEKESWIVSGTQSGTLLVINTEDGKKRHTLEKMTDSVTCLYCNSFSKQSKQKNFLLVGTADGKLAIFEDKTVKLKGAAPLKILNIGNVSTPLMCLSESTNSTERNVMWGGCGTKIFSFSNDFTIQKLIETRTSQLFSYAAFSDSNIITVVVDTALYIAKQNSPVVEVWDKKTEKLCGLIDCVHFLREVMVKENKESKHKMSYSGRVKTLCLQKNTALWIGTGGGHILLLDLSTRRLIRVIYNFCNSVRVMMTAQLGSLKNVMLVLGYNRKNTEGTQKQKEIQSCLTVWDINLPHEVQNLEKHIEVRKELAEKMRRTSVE

AMPK(A1/B1/G1) = AMPK(A1/B1/G1) (Homo sapiens, UniProt Q13131); test: Kinase profiling (Reaction Biology): AMPK(A1/B1/G1)

COC(=O)c1ccc2[nH]c(C3CCN(c4ncnc5[nH]cc(Cl)c45)CC3)nc2c1 [Compound R10015, Methyl 2-(1-(5-chloro-7H-pyrrolo[2,3-d]pyrimidin-4-yl)piperidin-4-yl)-1H-benzo[d]imidazole-5-carboxylate]
viability at 100 µM (in vitro): 89.2%
activity at 1 µM (PAK2): 98.2%
activity at 1 µM (c-MET): 82.1%
cofilin serine 3 phosphorylation [1]: drastic inhibition
activity at 1 µM (TBK1): 82%
viral late DNA synthesis (HIV-1(Env) [2]): inhibited
inhibition at 1 µM (p70S6K/RPS6KB1): ≥ 90%
activity at 1 µM (CAMK2b): 90.8%
activity at 1 µM (JAK3): 61.1%
IC50 (LIMK1): 38 ± 5 nM
activity at 1 µM (FLT3): 32.2%
inhibition at 1 µM (FLT3; read-out: inhibition of FLT3): ~68%
activity at 1 µM (PKA): 24%
inhibition at 1 µM (PKA; read-out: inhibition of protein kinase A (PKA)): ~76%
activity at 1 µM (STK16): 48.6%
activity at 1 µM (SGK1): 61%
activity at 1 µM (TESK1): 90.2%
inhibition of VEEV (TrD) (VEEV (TrD)): 2 log units
activity at 1 µM (ROCK1): 42.3%
IC50 [3]: ~5000 nM
surface expression of CXCR4 (CXCR4): did not alter
activity at 1 µM (GSK3b): 67.8%
activity at 1 µM (PIM2): 97.6%
activity at 1 µM (PDGFRb): 78.6%
viral nuclear migration (2-LTR circles) (HIV-1(Env) [4]): inhibited
P-cofilin, lower gate (cells staining low) (p-cofilin): 80%
activity at 1 µM (FGFR1): 86.5%
activity at 1 µM (LRRK2 (G2019S)): 6.7%
inhibition at 1 µM (LRRK2 (G2019S); read-out: inhibition of LRRK2): ≥ 90%
activity at 1 µM (AMPK(A1/B1/G1)): 76.6%
